Measured values as given in article PMC7549094 (Journal of Medicinal Chemistry, 2020).

Tests used:
[1] = dissolution study and supersaturation stability in FASSIF; type: physicochemical
[2] = molecular target: hr CB1 ag (Homo sapiens, UniProt P21554); experiment: receptor profile (Table S4); type: biochemical
[3] = molecular target: hr OpD (Homo sapiens, UniProt P41143); experiment: receptor profile (Table S4); type: binding
[4] = molecular target: hr H1 (Homo sapiens, UniProt P35367); experiment: receptor profile (Table S4); type: binding
hr H1, sequence (P35367 whole entry): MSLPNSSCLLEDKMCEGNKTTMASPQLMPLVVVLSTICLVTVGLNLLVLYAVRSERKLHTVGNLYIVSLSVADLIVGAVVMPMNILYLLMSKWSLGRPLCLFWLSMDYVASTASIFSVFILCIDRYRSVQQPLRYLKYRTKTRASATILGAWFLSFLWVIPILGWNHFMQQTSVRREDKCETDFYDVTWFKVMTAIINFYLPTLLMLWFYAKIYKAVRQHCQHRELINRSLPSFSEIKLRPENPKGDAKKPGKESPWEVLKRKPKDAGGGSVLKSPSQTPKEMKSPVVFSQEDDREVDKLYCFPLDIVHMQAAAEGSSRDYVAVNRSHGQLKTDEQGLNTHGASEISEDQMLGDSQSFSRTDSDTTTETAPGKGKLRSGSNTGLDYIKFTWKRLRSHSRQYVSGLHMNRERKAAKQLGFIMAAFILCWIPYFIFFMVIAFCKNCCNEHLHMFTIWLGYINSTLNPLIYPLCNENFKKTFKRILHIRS

[5] = molecular target: hr ERBB2 (Homo sapiens, UniProt P04626); experiment: receptor profile (Table S4); type: biochemical
hr ERBB2, sequence (P04626 23-1255): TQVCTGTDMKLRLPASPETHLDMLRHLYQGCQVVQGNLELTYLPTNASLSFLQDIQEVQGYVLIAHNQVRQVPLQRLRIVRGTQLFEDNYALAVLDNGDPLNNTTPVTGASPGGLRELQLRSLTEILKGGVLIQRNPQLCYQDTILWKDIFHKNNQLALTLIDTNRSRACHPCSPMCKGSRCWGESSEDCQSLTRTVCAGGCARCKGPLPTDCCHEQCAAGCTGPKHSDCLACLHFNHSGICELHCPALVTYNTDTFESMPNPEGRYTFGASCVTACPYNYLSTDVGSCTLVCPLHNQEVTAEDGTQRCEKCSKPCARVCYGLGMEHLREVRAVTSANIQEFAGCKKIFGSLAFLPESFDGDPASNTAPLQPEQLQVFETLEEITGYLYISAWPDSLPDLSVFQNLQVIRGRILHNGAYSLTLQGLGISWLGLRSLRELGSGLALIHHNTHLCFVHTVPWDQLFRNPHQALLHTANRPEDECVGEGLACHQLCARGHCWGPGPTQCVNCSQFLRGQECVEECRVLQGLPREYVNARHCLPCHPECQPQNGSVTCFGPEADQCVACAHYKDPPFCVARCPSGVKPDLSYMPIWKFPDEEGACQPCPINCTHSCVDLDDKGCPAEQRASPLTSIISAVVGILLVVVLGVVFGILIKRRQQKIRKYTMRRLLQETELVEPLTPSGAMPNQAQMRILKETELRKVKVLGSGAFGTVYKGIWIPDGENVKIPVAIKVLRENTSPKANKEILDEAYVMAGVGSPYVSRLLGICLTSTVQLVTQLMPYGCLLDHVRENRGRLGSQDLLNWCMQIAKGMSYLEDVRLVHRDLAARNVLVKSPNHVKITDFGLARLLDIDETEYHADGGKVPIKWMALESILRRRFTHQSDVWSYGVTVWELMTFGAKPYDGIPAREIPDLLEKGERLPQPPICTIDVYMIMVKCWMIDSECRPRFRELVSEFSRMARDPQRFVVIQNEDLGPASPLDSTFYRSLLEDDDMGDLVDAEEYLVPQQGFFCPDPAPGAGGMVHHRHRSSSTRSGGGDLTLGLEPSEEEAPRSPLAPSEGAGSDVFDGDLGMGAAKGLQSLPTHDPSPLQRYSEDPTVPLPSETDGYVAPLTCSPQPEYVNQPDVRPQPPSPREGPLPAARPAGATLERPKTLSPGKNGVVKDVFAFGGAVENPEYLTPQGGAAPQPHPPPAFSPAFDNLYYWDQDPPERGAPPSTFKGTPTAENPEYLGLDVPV

[6] = microsomal extraction ratio, 1 h incubation in microsomes
[7] = molecular target: T1, hr 5-HT1A antag (Homo sapiens, UniProt P08908); experiment: receptor profile (Table S4); type: biochemical
T1 sequence (P08908 1-422): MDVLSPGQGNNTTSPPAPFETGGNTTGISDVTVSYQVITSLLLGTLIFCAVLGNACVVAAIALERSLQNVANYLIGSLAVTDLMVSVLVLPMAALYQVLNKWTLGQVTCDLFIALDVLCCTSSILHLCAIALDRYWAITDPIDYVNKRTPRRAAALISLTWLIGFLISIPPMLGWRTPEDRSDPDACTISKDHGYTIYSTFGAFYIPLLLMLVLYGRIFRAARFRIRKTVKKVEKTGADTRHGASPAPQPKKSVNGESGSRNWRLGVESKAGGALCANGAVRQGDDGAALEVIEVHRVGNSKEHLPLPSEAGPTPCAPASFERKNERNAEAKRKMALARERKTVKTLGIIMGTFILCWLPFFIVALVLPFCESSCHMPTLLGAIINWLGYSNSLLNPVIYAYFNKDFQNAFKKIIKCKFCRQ

[8] = molecular target: T2, hr Al2A ag (Homo sapiens, UniProt P08913); experiment: receptor profile (Table S4); type: biochemical
T2 sequence (P08913 1-465): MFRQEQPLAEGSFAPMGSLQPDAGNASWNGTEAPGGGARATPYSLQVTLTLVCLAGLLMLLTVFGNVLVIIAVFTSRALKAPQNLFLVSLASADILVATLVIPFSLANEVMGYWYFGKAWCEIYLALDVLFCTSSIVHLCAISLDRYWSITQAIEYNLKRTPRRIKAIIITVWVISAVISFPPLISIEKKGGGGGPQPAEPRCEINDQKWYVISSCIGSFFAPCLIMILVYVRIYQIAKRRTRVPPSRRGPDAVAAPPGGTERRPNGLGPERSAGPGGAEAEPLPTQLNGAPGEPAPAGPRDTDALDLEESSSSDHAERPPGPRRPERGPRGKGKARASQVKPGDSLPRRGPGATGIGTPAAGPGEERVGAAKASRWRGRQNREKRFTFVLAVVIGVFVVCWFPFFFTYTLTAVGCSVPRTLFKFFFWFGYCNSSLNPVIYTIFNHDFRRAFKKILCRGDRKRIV

[9] = molecular target: hr H3 (Homo sapiens, UniProt Q9Y5N1); experiment: receptor profile (Table S4); type: binding
hr H3, sequence (Q9Y5N1 whole entry): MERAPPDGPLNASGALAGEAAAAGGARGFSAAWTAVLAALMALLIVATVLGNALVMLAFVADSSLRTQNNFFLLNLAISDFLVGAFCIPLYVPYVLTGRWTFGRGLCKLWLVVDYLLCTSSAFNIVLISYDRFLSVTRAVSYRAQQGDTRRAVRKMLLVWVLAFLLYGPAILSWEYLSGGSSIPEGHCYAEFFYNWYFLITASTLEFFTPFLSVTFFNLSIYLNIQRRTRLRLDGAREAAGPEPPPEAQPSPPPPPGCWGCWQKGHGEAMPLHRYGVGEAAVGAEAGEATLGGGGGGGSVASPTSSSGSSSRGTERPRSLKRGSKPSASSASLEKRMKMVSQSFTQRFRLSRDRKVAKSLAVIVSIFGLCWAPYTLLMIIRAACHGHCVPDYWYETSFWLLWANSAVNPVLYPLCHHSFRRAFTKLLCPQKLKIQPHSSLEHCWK

[10] = molecular target: T3, hr ETa (Homo sapiens, UniProt P25101); experiment: receptor profile (Table S4); type: binding
T3 sequence (P25101 21-427): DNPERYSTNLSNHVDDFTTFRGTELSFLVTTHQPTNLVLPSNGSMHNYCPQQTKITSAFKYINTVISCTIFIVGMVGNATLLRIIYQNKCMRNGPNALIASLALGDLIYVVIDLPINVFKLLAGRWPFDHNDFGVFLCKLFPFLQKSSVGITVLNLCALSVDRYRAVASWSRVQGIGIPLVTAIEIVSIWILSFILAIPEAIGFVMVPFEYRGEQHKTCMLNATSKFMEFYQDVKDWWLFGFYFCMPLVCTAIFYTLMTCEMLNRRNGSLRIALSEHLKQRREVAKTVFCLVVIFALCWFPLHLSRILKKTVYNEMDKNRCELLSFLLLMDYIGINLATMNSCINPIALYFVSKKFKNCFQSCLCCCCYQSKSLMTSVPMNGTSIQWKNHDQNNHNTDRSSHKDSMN

[11] = molecular target: T4, hr PPARg ag (Homo sapiens, UniProt P37231); experiment: receptor profile (Table S4); type: biochemical
T4 sequence (P37231 1-505): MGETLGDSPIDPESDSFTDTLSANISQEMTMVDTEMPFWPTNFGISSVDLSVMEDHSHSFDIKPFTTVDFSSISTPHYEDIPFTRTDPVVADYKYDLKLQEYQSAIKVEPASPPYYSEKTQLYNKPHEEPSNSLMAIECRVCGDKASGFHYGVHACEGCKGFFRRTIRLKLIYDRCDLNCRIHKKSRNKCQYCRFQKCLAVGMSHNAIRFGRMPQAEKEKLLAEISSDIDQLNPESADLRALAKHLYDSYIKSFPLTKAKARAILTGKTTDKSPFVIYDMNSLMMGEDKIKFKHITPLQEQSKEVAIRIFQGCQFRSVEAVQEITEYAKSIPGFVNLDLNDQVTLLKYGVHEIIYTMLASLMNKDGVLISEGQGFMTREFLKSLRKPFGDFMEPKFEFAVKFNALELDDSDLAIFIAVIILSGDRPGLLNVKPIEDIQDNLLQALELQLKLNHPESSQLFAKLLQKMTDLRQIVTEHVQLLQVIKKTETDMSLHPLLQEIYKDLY

[12] = molecular target: hr 5-HT2A antag (Homo sapiens, UniProt P28223); experiment: receptor profile (Table S4); type: biochemical
hr 5-HT2A antag, sequence (P28223 whole entry): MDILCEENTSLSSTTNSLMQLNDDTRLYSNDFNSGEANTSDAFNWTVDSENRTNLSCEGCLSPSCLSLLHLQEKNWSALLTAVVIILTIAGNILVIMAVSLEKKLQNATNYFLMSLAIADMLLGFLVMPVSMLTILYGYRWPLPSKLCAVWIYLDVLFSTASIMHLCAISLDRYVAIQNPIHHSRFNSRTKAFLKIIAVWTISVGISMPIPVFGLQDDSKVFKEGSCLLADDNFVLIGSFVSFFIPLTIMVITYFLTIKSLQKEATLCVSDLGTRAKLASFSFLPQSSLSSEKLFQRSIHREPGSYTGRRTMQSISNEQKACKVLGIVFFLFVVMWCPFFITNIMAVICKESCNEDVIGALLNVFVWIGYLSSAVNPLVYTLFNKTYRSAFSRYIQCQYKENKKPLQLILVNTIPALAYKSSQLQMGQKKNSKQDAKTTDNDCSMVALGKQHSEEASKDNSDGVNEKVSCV

[13] = in vivo; settings: Balb/c, mouse, plasma
Method: In Vivo PK Studies in Mice.
The solution was filtered using a 0.45 m syringe filter before dosing. Two male Balb/c mice were administered 1 intravenously via the lateral tail
vein at 5 mg/kg with a dose volume of 2.0 mL/kg. 1 was also formulated in a suspension of 0.5%
methylcellulose with 0.5% Tween 80 (0.5% MC/0.5% Tw80) in water at 2.5 mg/mL. A group of mice
(n=3) were administered 1 orally via gavage at 20 mg/kg with a dose volume of 8.0 mL/kg.
The mouse blood samples were centrifuged to separate plasma and the plasma samples were frozen at -
In Vivo PK Studies in Rats.
Two male Wistar rats were administered
1 intravenously via the lateral tail vein at 3 mg/kg with a dose volume of 1.0 mL/kg. 1 was also formulated
in a suspension of 0.5% methylcellulose with 0.5% Tween 80 (0.5% MC/0.5% Tw80) in water at 2.0
mg/mL. The second group of rats (n=3) were administered 1 orally via gavage at 10 mg/kg in suspension
with a dose volume of 5.0 mL/kg. Six blood samples of 100 μL each were collected serially from each
animal via the saphenous vein up to 24 hours after dosing. The rat blood samples were centrifuged to
separate plasma and the plasma samples were frozen at -20°C until analysis.
In Vivo PK Studies in Dogs.
The solution was filtered using a 0.45 m syringe filter before dosing. Three male Beagle dogs were administered 1 intravenously via saphenous
vein at 0.3 mg/kg with a dose volume of 0.1 mL/kg. 1 was also formulated in a suspension of 0.5%
methylcellulose with 0.5% Tween 80 (0.5%MC/0.5% Tween 80) in water at 1.0 mg/mL. The second
group of male dogs (n=2) were administered 1- orally via gavage at 1.0 mg/kg with a dose volume of 1.0
mL/kg. Seven blood samples of 250 µL each were collected serially from each animal via the jugular vein
The dog blood samples were centrifuged to separate plasma and the plasma
samples were frozen at -20 °C until analysis.

[14] = microsomal extraction ratio, 1 h incubation in microsomes; remark: listed apart in the source

hr CB1 ag, sequence (P21554 whole entry): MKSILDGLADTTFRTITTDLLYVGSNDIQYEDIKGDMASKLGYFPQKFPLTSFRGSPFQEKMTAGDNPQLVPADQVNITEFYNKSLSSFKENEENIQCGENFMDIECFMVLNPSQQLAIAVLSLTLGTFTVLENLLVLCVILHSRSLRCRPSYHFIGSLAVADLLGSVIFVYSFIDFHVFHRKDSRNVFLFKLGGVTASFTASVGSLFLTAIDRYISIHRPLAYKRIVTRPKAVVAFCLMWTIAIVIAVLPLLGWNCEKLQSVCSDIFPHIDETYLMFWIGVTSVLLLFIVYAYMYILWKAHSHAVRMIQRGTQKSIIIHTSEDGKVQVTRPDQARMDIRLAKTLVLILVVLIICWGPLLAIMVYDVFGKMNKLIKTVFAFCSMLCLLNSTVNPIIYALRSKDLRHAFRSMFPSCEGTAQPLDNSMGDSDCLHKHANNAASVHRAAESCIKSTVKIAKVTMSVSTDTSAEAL
hr OpD, sequence (P41143 whole entry): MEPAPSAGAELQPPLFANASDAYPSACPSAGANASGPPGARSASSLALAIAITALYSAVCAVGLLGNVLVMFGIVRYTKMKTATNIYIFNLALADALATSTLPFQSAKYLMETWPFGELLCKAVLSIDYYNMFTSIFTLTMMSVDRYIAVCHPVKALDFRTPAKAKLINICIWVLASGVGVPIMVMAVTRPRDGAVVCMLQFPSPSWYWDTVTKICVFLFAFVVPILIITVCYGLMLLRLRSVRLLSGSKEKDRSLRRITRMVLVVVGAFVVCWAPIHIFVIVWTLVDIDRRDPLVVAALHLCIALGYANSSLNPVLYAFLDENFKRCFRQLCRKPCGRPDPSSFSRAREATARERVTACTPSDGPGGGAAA

## Cc1nc(C)c(C(=O)Nc2ccc(F)c(-c3nc4ncc(-c5ncccc5C)cn4n3)c2)o1 [compound 1, N-(4-Fluoro-3-(6-(3-methylpyridin-2-yl)-[1,2,4]triazolo[1,5-a]pyrimidin-2-yl)phenyl)-2,4-dimethyloxazole-5-carboxamide]
[1]; fumarate cocrystal of 1, FASSIF, at 16 min
  concentration in FASSIF (supersaturation): 73 µM
[1]; fumarate cocrystal of 1 vs free base of 2, Figure 1
  dissolution rate: significantly higher dissolution rate
[2]; hr CB1 ag
  EC50/IC50: > 30 µM
[2]; read-out: % inh/act @ 10 µM
  inhibition at 10 µM: 0%
[2]; read-out: % inh/act @ 30 µM
  inhibition at 30 µM: 3%
[3]; hr OpD
  EC50/IC50: > 30 µM
[3]; read-out: % inh/act @ 10 µM
  inhibition at 10 µM: 22%
[3]; read-out: % inh/act @ 30 µM
  inhibition at 30 µM: 33%
[4]; hr H1
  EC50/IC50: > 30 µM
[4]; read-out: % inh/act @ 10 µM
  inhibition at 10 µM: 10%
[4]; read-out: % inh/act @ 30 µM
  inhibition at 30 µM: 24%
[5]; hr ERBB2
  EC50/IC50: > 30 µM
[5]; read-out: % inh/act @ 10 µM
  inhibition at 10 µM: 0%
[5]; read-out: % inh/act @ 30 µM
  inhibition at 30 µM: 0%
[6]
  ER human: 0.27
[7]; hr 5-HT1A antag
  EC50/IC50: > 30 µM
[7]; read-out: % inh/act @ 10 µM
  inhibition at 10 µM: 19%
[7]; read-out: % inh/act @ 30 µM
  inhibition at 30 µM: 42%
[8]; hr Al2A ag
  EC50/IC50: > 30 µM
[8]; read-out: % inh/act @ 10 µM
  inhibition at 10 µM: 0%
[8]; read-out: % inh/act @ 30 µM
  inhibition at 30 µM: 0%
[9]; hr H3
  EC50/IC50: > 30 µM
[9]; read-out: % inh/act @ 10 µM
  inhibition at 10 µM: 9%
[9]; read-out: % inh/act @ 30 µM
  inhibition at 30 µM: 14%
[10]; hr ETa
  EC50/IC50: > 30 µM
[10]; read-out: % inh/act @ 10 µM
  inhibition at 10 µM: 2%
[10]; read-out: % inh/act @ 30 µM
  inhibition at 30 µM: 13%
[11]; hr PPARg ag
  EC50/IC50: > 30 µM
[11]; read-out: % inh/act @ 10 µM
  inhibition at 10 µM: 4%
[11]; read-out: % inh/act @ 30 µM
  inhibition at 30 µM: 5%
[12]; hr 5-HT2A antag
  EC50/IC50: > 10 µM
[12]; read-out: % inh/act @ 10 µM
  inhibition at 10 µM: 34%
[13]; po, 20 mg/kg
  bioavailability: 46%
[13]; male, iv, 5 mg/kg
  MRT: 4.6 h
  Vd: 0.63 L/kg
  clearance: 2.3 mL/min/kg
  half-life: 3.3 h
[14]
  ER dog: < 0.24
